# Literature values in patent US6284774A, “4-Benzyl piperidine alkylsulfoxide heterocycles and their use as subtype-selective NMDA receptor antagonists” (priority 2000, dated 2001).
# Tests used:
# [1] = variety of animal models highly predictive of human anxiety; cited from earlier work
# [2] = tested on: smooth muscle of the airway; conditions: cited from earlier work
SMILES,effectiveness in animal models of anxiety [1],ability to relax the smooth muscle of the airway [2]
C[C@]12N[C@H](Cc3ccccc31)c1ccccc12 [MK801],effective in a variety of animal models of anxiety,–
CNC1(c2ccccc2Cl)CCCCC1=O (centres unmarked) [ketamine],–,relax the smooth muscle of the airway
